Data as given in ChEMBL document CHEMBL3991601, “The target landscape of clinical kinase drugs” (Science, 2017).
Activity calls are given as the source filed them. Rule as the data show it, for most assays here: actives have a measured Kd and inactives only a lower limit.

What was measured:
[1] = molecular target: T1, Serine/threonine-protein kinase PLK4 (Homo sapiens, UniProt O00444)
T1 sequence (O00444 whole entry): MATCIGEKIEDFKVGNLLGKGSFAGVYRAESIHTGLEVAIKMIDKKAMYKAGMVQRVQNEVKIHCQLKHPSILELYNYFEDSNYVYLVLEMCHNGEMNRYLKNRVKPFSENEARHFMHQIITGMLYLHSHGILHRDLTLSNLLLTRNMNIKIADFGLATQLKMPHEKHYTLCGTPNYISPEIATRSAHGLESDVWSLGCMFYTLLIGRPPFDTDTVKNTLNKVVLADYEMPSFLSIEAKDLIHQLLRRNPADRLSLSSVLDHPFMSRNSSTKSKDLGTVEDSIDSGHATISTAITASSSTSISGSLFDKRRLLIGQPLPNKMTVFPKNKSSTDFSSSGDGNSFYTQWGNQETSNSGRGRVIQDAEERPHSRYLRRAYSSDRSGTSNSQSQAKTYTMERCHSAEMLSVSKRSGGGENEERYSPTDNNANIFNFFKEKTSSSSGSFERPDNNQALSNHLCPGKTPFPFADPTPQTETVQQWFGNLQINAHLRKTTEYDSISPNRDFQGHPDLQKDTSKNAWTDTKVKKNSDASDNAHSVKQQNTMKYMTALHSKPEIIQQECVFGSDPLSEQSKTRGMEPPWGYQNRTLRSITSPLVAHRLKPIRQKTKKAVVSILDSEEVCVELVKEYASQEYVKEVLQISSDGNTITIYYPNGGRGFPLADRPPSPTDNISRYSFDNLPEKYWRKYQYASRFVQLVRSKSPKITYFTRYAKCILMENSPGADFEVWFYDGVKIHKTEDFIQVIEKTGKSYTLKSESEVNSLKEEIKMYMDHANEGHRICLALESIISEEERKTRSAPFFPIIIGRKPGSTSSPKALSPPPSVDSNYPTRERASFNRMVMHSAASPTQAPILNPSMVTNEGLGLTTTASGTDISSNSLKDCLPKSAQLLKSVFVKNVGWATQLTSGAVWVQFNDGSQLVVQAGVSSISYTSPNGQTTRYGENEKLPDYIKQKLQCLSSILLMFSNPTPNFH

[2] = molecular target: T2, Interleukin-1 receptor-associated kinase 3 (Homo sapiens, UniProt Q9Y616)
T2 sequence (Q9Y616 whole entry): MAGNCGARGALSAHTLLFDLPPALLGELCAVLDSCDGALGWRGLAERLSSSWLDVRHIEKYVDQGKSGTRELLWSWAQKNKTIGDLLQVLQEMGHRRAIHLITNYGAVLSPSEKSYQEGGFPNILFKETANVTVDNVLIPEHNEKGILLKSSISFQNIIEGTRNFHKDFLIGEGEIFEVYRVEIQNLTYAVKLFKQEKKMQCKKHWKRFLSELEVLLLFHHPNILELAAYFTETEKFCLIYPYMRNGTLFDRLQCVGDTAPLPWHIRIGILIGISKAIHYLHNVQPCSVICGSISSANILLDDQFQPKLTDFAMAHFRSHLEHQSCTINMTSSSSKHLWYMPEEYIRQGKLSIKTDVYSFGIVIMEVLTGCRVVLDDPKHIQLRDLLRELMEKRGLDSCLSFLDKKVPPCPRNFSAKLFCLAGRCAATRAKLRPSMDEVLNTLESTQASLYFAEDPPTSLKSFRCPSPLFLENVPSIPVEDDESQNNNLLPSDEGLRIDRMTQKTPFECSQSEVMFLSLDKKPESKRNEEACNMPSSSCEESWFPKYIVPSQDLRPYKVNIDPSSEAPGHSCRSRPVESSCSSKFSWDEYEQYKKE

[3] = molecular target: Cyclin-dependent kinase 5 (Homo sapiens, UniProt Q00535)
[4] = molecular target: T3, Tyrosine-protein kinase Tec (Homo sapiens, UniProt P42680)
T3 sequence (P42680 whole entry): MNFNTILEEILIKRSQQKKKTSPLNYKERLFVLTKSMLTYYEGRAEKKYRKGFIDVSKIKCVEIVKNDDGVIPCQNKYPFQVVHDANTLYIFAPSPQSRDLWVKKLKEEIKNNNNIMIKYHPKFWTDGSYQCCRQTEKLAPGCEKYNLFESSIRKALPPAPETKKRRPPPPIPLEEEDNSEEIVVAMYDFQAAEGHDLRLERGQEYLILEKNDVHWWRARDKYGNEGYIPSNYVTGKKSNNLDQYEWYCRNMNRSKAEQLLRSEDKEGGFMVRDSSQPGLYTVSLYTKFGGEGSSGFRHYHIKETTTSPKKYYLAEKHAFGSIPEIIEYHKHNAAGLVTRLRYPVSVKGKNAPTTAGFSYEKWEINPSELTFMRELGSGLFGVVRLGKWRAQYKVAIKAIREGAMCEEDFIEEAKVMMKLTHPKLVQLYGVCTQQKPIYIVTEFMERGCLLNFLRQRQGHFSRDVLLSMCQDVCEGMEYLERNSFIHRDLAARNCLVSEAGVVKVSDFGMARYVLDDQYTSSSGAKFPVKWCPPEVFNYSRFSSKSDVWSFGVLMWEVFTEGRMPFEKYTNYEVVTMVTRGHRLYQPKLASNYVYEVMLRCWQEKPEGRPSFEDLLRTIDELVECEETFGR

[5] = molecular target: Protein-tyrosine kinase 2-beta (Homo sapiens, UniProt Q14289)
[6] = molecular target: Mitogen-activated protein kinase kinase kinase 1 (Homo sapiens, UniProt Q13233)
[7] = molecular target: Mitogen-activated protein kinase 1 (Homo sapiens, UniProt P28482)
[8] = molecular target: 5'-AMP-activated protein kinase catalytic subunit alpha-1 (Homo sapiens, UniProt Q13131)
[9] = molecular target: Focal adhesion kinase 1 (Homo sapiens, UniProt Q05397)
Also: in the data inactive means no Kd found up to 30 µM.

5'-AMP-activated protein kinase catalytic subunit alpha-1, sequence (Q13131 whole entry): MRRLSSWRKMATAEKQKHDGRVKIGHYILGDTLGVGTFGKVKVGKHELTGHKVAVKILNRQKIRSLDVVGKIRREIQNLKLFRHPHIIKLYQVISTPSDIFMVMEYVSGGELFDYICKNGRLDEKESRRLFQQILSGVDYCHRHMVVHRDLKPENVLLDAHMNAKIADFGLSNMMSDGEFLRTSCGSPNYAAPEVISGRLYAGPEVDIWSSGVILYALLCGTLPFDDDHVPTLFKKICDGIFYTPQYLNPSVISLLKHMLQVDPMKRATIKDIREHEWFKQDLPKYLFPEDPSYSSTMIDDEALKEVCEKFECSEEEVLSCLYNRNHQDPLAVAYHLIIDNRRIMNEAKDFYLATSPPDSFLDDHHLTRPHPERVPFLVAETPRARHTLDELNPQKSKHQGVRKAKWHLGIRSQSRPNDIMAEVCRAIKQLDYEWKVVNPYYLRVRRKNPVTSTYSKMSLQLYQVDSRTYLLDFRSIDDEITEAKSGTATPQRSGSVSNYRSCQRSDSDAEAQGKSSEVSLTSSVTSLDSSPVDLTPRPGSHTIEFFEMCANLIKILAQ
Focal adhesion kinase 1, sequence (Q05397 whole entry): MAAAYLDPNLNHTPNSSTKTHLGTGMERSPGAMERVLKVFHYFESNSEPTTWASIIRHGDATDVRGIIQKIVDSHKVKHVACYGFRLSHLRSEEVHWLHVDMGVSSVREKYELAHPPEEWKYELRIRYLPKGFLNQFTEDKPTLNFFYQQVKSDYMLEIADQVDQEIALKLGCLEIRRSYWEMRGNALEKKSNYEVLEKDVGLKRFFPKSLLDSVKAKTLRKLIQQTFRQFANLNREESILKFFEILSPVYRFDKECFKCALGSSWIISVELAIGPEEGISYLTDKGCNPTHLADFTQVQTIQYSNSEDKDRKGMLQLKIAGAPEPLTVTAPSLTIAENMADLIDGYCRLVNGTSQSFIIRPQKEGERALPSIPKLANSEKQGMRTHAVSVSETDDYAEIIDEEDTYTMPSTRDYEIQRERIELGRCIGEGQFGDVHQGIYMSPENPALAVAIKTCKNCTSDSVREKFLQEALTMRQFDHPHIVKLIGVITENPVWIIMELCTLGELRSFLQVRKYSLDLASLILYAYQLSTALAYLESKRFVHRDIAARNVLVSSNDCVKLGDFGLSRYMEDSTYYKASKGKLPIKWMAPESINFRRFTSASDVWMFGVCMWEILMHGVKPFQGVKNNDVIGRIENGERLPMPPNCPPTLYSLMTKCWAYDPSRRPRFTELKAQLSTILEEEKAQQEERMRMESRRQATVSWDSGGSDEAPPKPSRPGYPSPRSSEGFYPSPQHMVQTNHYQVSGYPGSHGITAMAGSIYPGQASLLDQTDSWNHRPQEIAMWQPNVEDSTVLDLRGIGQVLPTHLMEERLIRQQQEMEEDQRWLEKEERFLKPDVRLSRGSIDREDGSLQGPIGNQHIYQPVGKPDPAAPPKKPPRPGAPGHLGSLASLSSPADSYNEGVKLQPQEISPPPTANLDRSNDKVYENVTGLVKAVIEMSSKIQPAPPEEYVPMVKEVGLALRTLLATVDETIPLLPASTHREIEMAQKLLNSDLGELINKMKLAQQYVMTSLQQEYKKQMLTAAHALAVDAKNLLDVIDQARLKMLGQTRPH
Mitogen-activated protein kinase kinase kinase 1, sequence (Q13233 whole entry): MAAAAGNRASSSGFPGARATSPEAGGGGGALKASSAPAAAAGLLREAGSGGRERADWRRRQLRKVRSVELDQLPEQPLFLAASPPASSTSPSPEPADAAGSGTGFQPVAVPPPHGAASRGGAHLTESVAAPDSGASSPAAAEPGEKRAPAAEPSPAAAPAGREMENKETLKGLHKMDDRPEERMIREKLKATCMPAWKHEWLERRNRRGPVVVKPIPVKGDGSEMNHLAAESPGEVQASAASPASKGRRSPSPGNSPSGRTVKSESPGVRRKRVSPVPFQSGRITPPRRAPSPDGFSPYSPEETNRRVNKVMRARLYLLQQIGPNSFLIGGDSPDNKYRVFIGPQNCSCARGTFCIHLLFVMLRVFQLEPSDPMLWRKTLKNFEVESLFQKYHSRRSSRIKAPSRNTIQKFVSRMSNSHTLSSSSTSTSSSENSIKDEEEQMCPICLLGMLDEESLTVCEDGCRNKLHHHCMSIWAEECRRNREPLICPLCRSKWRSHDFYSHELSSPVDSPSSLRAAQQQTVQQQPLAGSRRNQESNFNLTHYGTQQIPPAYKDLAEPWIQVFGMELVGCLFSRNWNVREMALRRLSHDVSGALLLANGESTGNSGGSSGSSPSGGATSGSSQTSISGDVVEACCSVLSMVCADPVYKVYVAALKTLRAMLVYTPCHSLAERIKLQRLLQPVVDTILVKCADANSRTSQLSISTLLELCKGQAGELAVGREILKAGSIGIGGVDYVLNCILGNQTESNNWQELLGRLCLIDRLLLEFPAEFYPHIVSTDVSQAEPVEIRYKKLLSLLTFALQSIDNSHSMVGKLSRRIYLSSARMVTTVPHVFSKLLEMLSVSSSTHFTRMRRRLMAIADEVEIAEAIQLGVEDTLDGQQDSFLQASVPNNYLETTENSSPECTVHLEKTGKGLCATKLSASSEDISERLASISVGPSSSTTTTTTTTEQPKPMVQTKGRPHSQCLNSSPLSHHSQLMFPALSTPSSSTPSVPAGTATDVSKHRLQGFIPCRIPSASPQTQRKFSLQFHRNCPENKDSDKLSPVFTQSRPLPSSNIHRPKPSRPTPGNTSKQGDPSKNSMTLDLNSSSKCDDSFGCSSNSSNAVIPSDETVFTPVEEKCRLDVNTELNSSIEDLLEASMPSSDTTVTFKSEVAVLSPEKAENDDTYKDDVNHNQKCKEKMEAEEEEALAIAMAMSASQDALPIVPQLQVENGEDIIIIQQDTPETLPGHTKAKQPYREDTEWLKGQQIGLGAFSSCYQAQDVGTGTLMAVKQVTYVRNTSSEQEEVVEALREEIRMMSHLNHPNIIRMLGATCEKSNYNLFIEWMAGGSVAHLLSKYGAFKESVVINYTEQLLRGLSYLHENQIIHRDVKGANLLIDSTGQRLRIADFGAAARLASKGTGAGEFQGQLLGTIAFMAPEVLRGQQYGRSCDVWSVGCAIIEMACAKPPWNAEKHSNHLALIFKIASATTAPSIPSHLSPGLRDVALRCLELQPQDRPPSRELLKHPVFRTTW
Mitogen-activated protein kinase 1, sequence (P28482 whole entry): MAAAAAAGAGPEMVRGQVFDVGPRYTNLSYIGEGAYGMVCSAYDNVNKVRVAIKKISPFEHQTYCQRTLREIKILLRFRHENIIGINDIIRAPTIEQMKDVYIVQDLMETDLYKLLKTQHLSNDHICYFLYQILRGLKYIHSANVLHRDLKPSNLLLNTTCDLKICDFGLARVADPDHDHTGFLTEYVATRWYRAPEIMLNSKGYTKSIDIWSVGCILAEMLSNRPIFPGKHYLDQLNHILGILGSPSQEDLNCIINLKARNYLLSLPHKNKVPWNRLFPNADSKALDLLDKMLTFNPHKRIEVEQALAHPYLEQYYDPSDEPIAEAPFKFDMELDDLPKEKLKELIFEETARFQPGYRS
Protein-tyrosine kinase 2-beta, sequence (Q14289 whole entry): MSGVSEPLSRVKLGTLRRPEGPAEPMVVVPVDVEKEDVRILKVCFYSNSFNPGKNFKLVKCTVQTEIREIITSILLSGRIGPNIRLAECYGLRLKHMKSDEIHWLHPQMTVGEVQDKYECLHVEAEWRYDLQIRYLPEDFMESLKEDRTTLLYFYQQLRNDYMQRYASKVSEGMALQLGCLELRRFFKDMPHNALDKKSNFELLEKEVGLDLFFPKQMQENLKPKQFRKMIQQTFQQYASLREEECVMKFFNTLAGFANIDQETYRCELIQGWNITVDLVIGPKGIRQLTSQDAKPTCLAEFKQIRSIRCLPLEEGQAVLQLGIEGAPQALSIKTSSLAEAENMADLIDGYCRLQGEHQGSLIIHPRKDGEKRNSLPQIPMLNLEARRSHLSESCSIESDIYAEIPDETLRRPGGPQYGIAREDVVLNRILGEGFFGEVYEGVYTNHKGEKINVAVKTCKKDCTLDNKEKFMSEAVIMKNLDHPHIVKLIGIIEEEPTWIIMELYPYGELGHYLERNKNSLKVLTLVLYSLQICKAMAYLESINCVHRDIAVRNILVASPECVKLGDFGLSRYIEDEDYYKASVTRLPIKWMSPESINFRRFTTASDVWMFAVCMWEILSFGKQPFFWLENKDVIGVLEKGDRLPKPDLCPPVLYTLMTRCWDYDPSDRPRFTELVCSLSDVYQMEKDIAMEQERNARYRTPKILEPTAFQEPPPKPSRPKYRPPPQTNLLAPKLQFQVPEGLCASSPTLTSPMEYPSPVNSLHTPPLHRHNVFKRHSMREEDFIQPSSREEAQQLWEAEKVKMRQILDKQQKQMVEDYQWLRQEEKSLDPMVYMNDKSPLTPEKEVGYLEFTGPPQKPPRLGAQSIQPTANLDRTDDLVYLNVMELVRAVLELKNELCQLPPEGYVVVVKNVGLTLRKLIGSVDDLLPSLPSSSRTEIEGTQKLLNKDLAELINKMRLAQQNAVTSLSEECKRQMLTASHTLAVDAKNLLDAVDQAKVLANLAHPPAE
Cyclin-dependent kinase 5, sequence (Q00535 whole entry): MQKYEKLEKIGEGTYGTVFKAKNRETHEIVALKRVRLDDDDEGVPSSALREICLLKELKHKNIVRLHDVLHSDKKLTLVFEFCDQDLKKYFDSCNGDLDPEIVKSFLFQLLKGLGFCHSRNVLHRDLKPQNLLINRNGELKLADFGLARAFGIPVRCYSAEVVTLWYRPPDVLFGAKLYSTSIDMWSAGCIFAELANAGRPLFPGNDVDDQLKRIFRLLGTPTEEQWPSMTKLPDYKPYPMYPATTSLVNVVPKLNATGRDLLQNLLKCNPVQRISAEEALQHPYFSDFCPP

Row | Kd [1] | Kd [2] | Kd [3] | Kd [4] | Kd [5] | Kd [6] | Kd [7] | Kd [8] | Kd [9] | SMILES
1 | > 30 µM (inactive) | > 30 µM (inactive) | > 30 µM (inactive) | > 30 µM (inactive) | > 30 µM (inactive) | > 30 µM (inactive) | > 30 µM (inactive) | > 30 µM (inactive) | 0.601 µM (active) | CC[C@@H]1C(=O)N(C)c2cnc(Nc3ccc(C(=O)N[C@H]4CC[C@H](N5CCN(CC6CC6)CC5)CC4)cc3OC)nc2N1C(C)C [VOLASERTIB]
2 | > 30 µM (inactive) | > 30 µM (inactive) | > 30 µM (inactive) | > 30 µM (inactive) | > 30 µM (inactive) | > 30 µM (inactive) | > 30 µM (inactive) | > 30 µM (inactive) | > 30 µM (inactive) | Cc1cc([C@@H](C)Nc2ccccc2C(=O)O)c2nc(N3CCOCC3)cc(=O)n2c1 [AZD-6482]
3 | 1.42 µM (active) | > 30 µM (inactive) | > 30 µM (inactive) | > 30 µM (inactive) | > 30 µM (inactive) | > 30 µM (inactive) | > 30 µM (inactive) | > 30 µM (inactive) | > 30 µM (inactive) | COCCNCc1ccc(-c2cc3nccc(Oc4ccc(NC(=S)NC(=O)Cc5ccc(F)cc5)cc4F)c3s2)nc1 [GLESATINIB]
4 | > 30 µM (inactive) | > 30 µM (inactive) | > 30 µM (inactive) | > 30 µM (inactive) | > 30 µM (inactive) | > 30 µM (inactive) | > 30 µM (inactive) | > 30 µM (inactive) | > 30 µM (inactive) | CCn1c(=O)c(-c2cc[nH]n2)cc2c(C)nc(N)nc21 [VOXTALISIB]
5 | > 30 µM (inactive) | > 30 µM (inactive) | > 30 µM (inactive) | > 30 µM (inactive) | > 30 µM (inactive) | > 30 µM (inactive) | > 30 µM (inactive) | > 30 µM (inactive) | > 30 µM (inactive) | COc1ccc(-c2ccc3c(N4CCOC[C@@H]4C)nc(N4CCOC[C@@H]4C)nc3n2)cc1CO [AZD-8055]
6 | > 30 µM (inactive) | > 30 µM (inactive) | > 30 µM (inactive) | > 30 µM (inactive) | > 30 µM (inactive) | 12.5 µM (active) | > 30 µM (inactive) | > 30 µM (inactive) | > 30 µM (inactive) | CN(C)C(=O)c1cc2cnc(Nc3ccc(N4CCNCC4)cn3)nc2n1C1CCCC1 [RIBOCICLIB]
7 | > 30 µM (inactive) | > 30 µM (inactive) | > 30 µM (inactive) | > 30 µM (inactive) | > 30 µM (inactive) | > 30 µM (inactive) | > 30 µM (inactive) | > 30 µM (inactive) | > 30 µM (inactive) | Cc1cc2c(F)c(Oc3ncnn4cc(OC[C@@H](C)OC(=O)[C@H](C)N)c(C)c34)ccc2[nH]1 [BRIVANIB ALANINATE]

Row | SMILES | Kd [1] | Kd [2] | Kd [3] | Kd [4] | Kd [5] | Kd [6] | Kd [7] | Kd [8] | Kd [9]
8 | COC(=O)[C@@]1(O)C[C@H]2O[C@]1(C)n1c3ccccc3c3c4c(c5c6ccccc6n2c5c31)C(=O)NC4 [K-252A] | 0.073 µM (active) | 0.254 µM (active) | 0.911 µM (active) | > 30 µM (inactive) | 1.36 µM (active) | > 30 µM (inactive) | > 30 µM (inactive) | 0.461 µM (active) | > 30 µM (inactive)
9 | Cc1ccc(-n2nc(C(C)(C)C)cc2NC(=O)NCc2cc(F)ccc2Oc2ccc3c(cnn3CCO)c2)cc1 [PEXMETINIB] | > 30 µM (inactive) | > 30 µM (inactive) | 4.16 µM (active) | > 30 µM (inactive) | 30.4 µM (active) | > 30 µM (inactive) | > 30 µM (inactive) | > 30 µM (inactive) | > 30 µM (inactive)
